Experimental data reported in US20230234993A1, “COMPOSITION FOR PREVENTING OR TREATING NEUROLOGICAL DISEASES RELATED TO COPPER METABOLISM, COMPRISING MULTI-COPPER OXIDASE PEPTIDE” (NATIONAL MARINE BIODIVERSITY INSTITUTE OF KOREA, priority 2020, published 2023).
Where no end group is shown, it is not given here.

Legend:
Format in all cases: in vivo
[1] = tested on: zebrafish embryos exposed to copper; assay: Hatching rate under copper overexposure conditions
Experimental: Through hatching rate examination, the activities of CP002 and CP002S were analyzed in zebrafish embryos exposed to copper. Specifically, the development process of fertilized eggs obtained by mating male and female wild-type zebrafish was safely maintained in an incubator. At 24 hours after fertilization, normally grown embryos were dispensed into a 24-well plate by 13 subjects and maintained under copper overexposure conditions. The dispensed subjects were treated with CP002 (5, 10 μM), CP002S (5, 10 μM), DPA (5, 10 μM), or TETA (5, 10 μM). From 48 hours to 52, 56, 60, 72, and 80 hours after fertilization (24 hours after treatment) when hatching started, the number of hatched subjects in each group was examined. A negative control group in the experiment was a 0.1% DMSO treated group (normal group) and a copper overexposed group (4 μM CuSO4), and a positive control group was a CP002 treated group; a DPA (penicillamine/D-Penicillamine) treated group; and a TETA (trientine/Trientine) treated group. The DPA and TETA were drugs that have been used as therapeutic agents for Wilson's disease and copper overexposure in the related art. The results of examining the hatching rate were illustrated in FIG. 9.

[2] = tested on: myelinated cells in the nervous system of zebrafish embryos under copper overexposure; assay: Myelination defect of cranial ganglia in copper overexposure nervous system model (fluorescence microscopy); conditions: 6 days of drug treatment; for subjects expressing the fluorescent protein (cranial ganglia): with copper, concentration not given
Experimental: The development process of fertilized eggs obtained by mating male and female wild-type zebrafish was safely maintained in an incubator (28.5° C.). At 24 hours after fertilization, normally grown embryos were dispensed into a 24-well plate by 10 subjects and maintained under copper overexposure conditions. To examine the developmental defects of myelinated cells in the nervous system due to copper overexposure and a therapeutic effect of a multi-copper oxidase peptide, CP002S (10 μM) was treated. After 6 days of drug treatment, the subjects were anesthetized with tricaine and placed in 3% methylcellulose. The myelination defect of cranial ganglia (Cg) was observed through fluorescence microscopy, and fluorescent proteins were divided into a normal and a defect according to an expression level. A negative control group in the experiment was a 0.1% DMSO treated group (normal group) and a copper overexposed group, and a positive control group was a DPA (penicillamine/D-Penicillamine) treated group; and a TETA (trientine/Trientine) treated group. The results observed with a fluorescence microscope were illustrated in FIG. 10A, and the results of analyzing the therapeutic effect based on the fluorescence microscope observation results were illustrated in FIG. 10B.

[3] = tested on: zebrafish embryos under copper overexposure conditions; assay: Cardiotoxicity (heart rate) in copper-overexposed nervous system model
Experimental: The development process of fertilized eggs obtained by mating male and female wild-type zebrafish was safely maintained in an incubator (28.5° C.). At 24 hours after fertilization, normally grown embryos were dispensed into a 24-well plate by 20 subjects and maintained under copper overexposure conditions. On 4.5 days after treatment (5.5 days after fertilization), 7 subjects per group were randomly selected, 3% methylcellulose was put in a hole slide glass, and the heart of each subject was located on the hole slide glass to be observed with the naked eye through a stereoscopic microscope lens and observed under a microscope. The heart rate was measured together with the movement of the atria and the ventricles for 20 seconds for each subject in each group to be converted to a heart rate per minute and the average heart rate for each group was compared through a PRISM (Bonfferroni's Multiple Comparison Test, One-way ANOVA) program. In addition, the heart rate inhibition rate was calculated as follows using an average heart rate of the control group. Heart rate inhibition rate=[(average heart rate by group−average heart rate in control group)×100]/average heart rate in control group […] The results of measuring the heart rate in the copper overexposed model animal were illustrated in FIG. 11A, and the heart rate inhibition rate calculated based on the heart rate measurement results was illustrated in FIG. 11B.

[4] = tested on: wild-type zebrafish fertilized eggs; assay: Developmental toxicity analysis of multi-copper oxidase-derived peptides (number of surviving subjects, viability)
Experimental: The developmental toxicity of CP001 (SEQ ID NO: 3) and CP002 (SEQ ID NO: 4), which were multi-copper oxidase-derived peptides, was analyzed. Specifically, fertilized eggs were obtained by mating wild-type zebrafish. After the obtained fertilized eggs were maintained in an incubator for 24 hours, 7 subjects were dispensed into each well of a 24-well plate. The dispensed subjects were treated with CP001 and CP002 at various concentrations (10, 50, and 100 μM). After treatment with the CP001 and CP002, the number of surviving subjects at 2, 6, 22, and 36 hours was confirmed using a microscope, and the viability was calculated based on the results. The control group of the experiment was treated with 0.1% DMSO. The result of confirming the number of surviving subjects was illustrated in FIG. 5A and the calculation result of the viability was illustrated in FIG. 5B.
The experiment was performed in the same method as described above, and the treatment concentrations of CP001 and CP002 were as follows. • CP001: 1 μM, 4 μM • CP002: 5 μM, 10 μM

[5] = tested on: wild-type zebrafish embryos; assay: Abnormal blood deposition in tissue by hematological staining after ceruloplasmin mRNA injection; conditions: 180 pg or 350 pg mRNA injected into embryos at 1 to 4 cell stages; 48 hours after injection; compared to normal group
Experimental: Specifically, the ceruloplasmin gene (SEQ ID NO: 1) derived from Octopus minor obtained in Example 1 was treated with restriction enzymes Cla 1 and Xho 1, and inserted into a pCS2+ expression vector. A restriction enzyme Sac II was treated to the pCS2+ expression vector into which the ceruloplasmin gene was inserted, to prepare linear DNA. An mRNA using the linear DNA as a template was synthesized by an in vitro transcription (Sp6, Invitrogen) method.
After obtaining fertilized eggs by mating wild-type zebrafish, embryos at 1 to 4 cell stages were arranged on an injection plate. After loading the synthesized ceruloplasmin mRNA in a microglass tube with a microloder tip, a predetermined concentration (180 pg or 350 pg) thereof was injected into the embryo using a microinjector, a picopump, and a microscope. Subjects injected with the ceruloplasmin mRNA were cultured in an incubator, and after 48 hours of injection, dark-treated with a hematological staining reagent (o-dianisidine (0.6 mg/ml), 0.01 M sodium acetate (pH 4.5), 0.65% H2O2, 40% ethanol) for 30 minutes, and then washed. After washing, a fixing solution (4% paraformaldehyde) was treated to the subject injected with the ceruloplasmin mRNA, and reacted for at least 1 hour. The subjects injected with the immobilized ceruloplasmin mRNA were placed in 80% glycerol/20% PBS, and photographed under a stereoscopic microscope. […]

[6] = 10 μM, 72 hours after fertilization
[7] = 10 μM, 80 hours after fertilization
[8] = 5 μM, 48 hours after fertilization
[9] = 5 μM, 52 hours after fertilization
[10] = 10 μM, 48 hours after fertilization
[11] = 10 μM, 52 hours after fertilization
[12] = copper overexposure, 5.5 days after fertilization, concentration not given

Compound	hatching rate [1, 6] [%]	hatching rate [1, 7] [%]	subjects expressing the fluorescent protein (cranial ganglia) [2] [%]	hatching rate [1, 8] [%]	hatching rate [1, 9] [%]	hatching rate [1, 10] [%]	hatching rate [1, 11] [%]	heart rate [3, 12] [beats per minute]	further results
CC(C)(S)[C@@H](N)C(=O)O [DPA, D-Penicillamine]	36.3	81.8	100						hatching rate ([1]; 5 μM, 80 hours after fertilization): 45.4%
NCCNCCNCCN [TETA, Trientine]	92.3	100	80	12.5	75	30.7	84.6	148	hatching rate ([1]; 5 μM, 56 hours after fertilization): 100%; heart rate increase compared to the control group (heart rate inhibition rate) [3, 12]: 3.5%
GKWLLHCHVDDHIIGGMSAIY [CP002]								132	developmental toxicity ([4]; 10 μM, surviving subjects at 2, 6, 22, 36 hours): developmental toxicity was not shown; developmental toxicity (number of surviving subjects and viability) ([4]; 5 or 10 μM): there was no developmental toxicity; developmental toxicity ([4]; 50 to 100 μM, surviving subjects at 2, 6, 22, 36 hours): developmental toxicity was confirmed; heart rate decrease compared to the normal group (heart rate inhibition rate) ([3]; zebrafish, in vivo): 7.7%
GSWLVKCHVHDHYVGGMETLL [CP001]									developmental toxicity ([4]; 5 μM): developmental toxicity was not confirmed; developmental toxicity (number of surviving subjects and viability) ([4]; 1 or 4 μM): there was no developmental toxicity; developmental toxicity ([4]; 10 to 100 μM, surviving subjects at 2, 6, 22, 36 hours): developmental toxicity was confirmed
HCHVDDHIIGGM [CP002S]				10	20	80	100		hatching rate ([1]; 5 μM, 72 hours after fertilization): 100%; subjects with fluorescent protein expression in the cranial ganglia ([2]; 10 μM with copper): all subjects; heart rate ([3]; 10 μM, copper overexposure, 5.5 days after fertilization): 135 beats per minute
ceruloplasmin mRNA: mRNA synthesized by in vitro transcription from the Octopus minor ceruloplasmin gene (SEQ ID NO: 1)									blood deposition in tissue (o-dianisidine hematological staining) [5]: abnormal blood deposition in tissue was observed
